# Results as given in the supplement of paper PMC10307832.
# How the values were obtained:
# Experiment in all cases: relative viability (nuclei count vs DMSO), 5 days (fraction); higher = more cells survive
# Decitabine + Phenformin = compound: Nc1ncn([C@H]2C[C@H](O)[C@@H](CO)O2)c(=O)n1 [Decitabine] + N=C(N)NC(=N)NCCc1ccccc1 [Phenformin] (partner 250 µM)
# Outline: (§1)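 Each reported value is a median over duplicate plates. It expresses relative viability: treated-well nuclei count divided by vehicle-well nuclei count. Lung cancer cell lines in 1536-well plates were dosed by pin tool a day after seeding, alone with one drug or with a fixed anchor-drug dose plus five library-drug doses (not always all listed) in √10 steps, and nuclei were counted after 5 days.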
# Decitabine + Linsitinib = compound: Nc1ncn([C@H]2C[C@H](O)[C@@H](CO)O2)c(=O)n1 [Decitabine] + C[C@]1(O)C[C@@H](c2nc(-c3ccc4ccc(-c5ccccc5)nc4c3)c3c(N)nccn32)C1 [Linsitinib] (partner 1 µM)
# Outline: as §1
# Decitabine + Navitoclax = compound: Nc1ncn([C@H]2C[C@H](O)[C@@H](CO)O2)c(=O)n1 [Decitabine] + CC1(C)CCC(c2ccc(Cl)cc2)=C(CN2CCN(c3ccc(C(=O)NS(=O)(=O)c4ccc(N[C@H](CCN5CCOCC5)CSc5ccccc5)c(S(=O)(=O)C(F)(F)F)c4)cc3)CC2)C1 [Navitoclax] (partner 0.5 µM)
# Outline: as §1
# Cediranib + Navitoclax = compound: COc1cc2c(Oc3ccc4[nH]c(C)cc4c3F)ncnc2cc1OCCCN1CCCC1 [Cediranib] + CC1(C)CCC(c2ccc(Cl)cc2)=C(CN2CCN(c3ccc(C(=O)NS(=O)(=O)c4ccc(N[C@H](CCN5CCOCC5)CSc5ccccc5)c(S(=O)(=O)C(F)(F)F)c4)cc3)CC2)C1 [Navitoclax] (partner 0.5 µM)
# Outline: as §1
Cell Line,relative viability (Decitabine + Phenformin; first compound 0.04 µM),relative viability (Decitabine + Phenformin; first compound 0.1265 µM),relative viability (Decitabine + Phenformin; first compound 0.4 µM),relative viability (Decitabine + Phenformin; first compound 1.265 µM),relative viability (Decitabine + Phenformin; first compound 4 µM),relative viability (Decitabine + Linsitinib; first compound 0.1265 µM),relative viability (Decitabine + Linsitinib; first compound 0.4 µM),relative viability (Decitabine + Linsitinib; first compound 1.265 µM),relative viability (Decitabine + Linsitinib; first compound 4 µM),relative viability (Decitabine + Navitoclax; first compound 0.1265 µM),relative viability (Decitabine + Navitoclax; first compound 0.4 µM),relative viability (Decitabine + Navitoclax; first compound 1.265 µM),relative viability (Decitabine + Navitoclax; first compound 4 µM),relative viability (Cediranib + Navitoclax; first compound 0.04 µM),relative viability (Cediranib + Navitoclax; first compound 0.1265 µM),relative viability (Cediranib + Navitoclax; first compound 0.4 µM),relative viability (Cediranib + Navitoclax; first compound 1.265 µM),relative viability (Cediranib + Navitoclax; first compound 4 µM),relative viability (Decitabine + Linsitinib; first compound 0.04 µM),relative viability (Decitabine + Navitoclax; first compound 0.04 µM)
PC-3 [JPC-3],0.372,0.452,0.393,0.386,0.379,0.8,0.676,0.64,0.607,0.601,0.526,0.463,0.51,0.715,0.705,0.735,0.849,0.801,–,–
HCC-44,0.136,0.196,0.0892,0.136,0.13,0.644,0.495,0.292,0.351,0.74,0.362,0.408,0.425,0.972,–,1.01,0.965,1.11,0.686,0.78
NCI-H2405,0.388,0.39,0.408,0.321,0.366,0.891,0.74,0.548,0.465,0.837,0.455,0.355,0.244,0.766,1.01,0.79,1.11,0.838,0.838,0.769
LXF-289,0.431,0.371,0.263,0.26,0.228,0.674,0.566,0.372,0.395,0.53,0.44,0.308,0.29,0.97,0.878,0.948,0.926,0.957,0.893,0.65
LOU-NH91,0.442,0.724,0.732,0.588,0.659,0.839,0.779,0.693,0.735,0.645,0.503,0.458,0.525,0.673,0.635,0.665,0.706,0.544,0.575,0.372
A549,0.145,0.139,0.157,0.0732,0.0645,0.731,0.554,0.299,0.151,0.875,0.331,0.117,0.077,1.29,1.34,1.23,1.25,1.24,0.535,0.929
H3255,–,0.339,0.364,0.291,0.347,0.88,0.551,0.554,0.468,0.331,0.353,0.328,0.276,0.673,0.429,0.447,0.453,0.376,0.488,0.201
NCI-H1395,0.398,0.407,0.46,0.411,0.399,0.938,0.597,0.63,0.509,0.733,0.715,0.598,0.703,1.23,–,1.23,1.13,1.05,0.768,0.913
LC-2-ad,0.512,0.552,0.509,0.419,0.416,0.746,0.51,0.497,0.378,0.325,0.253,0.197,0.148,0.504,0.502,0.469,0.419,0.513,0.732,0.323
NCI-H838,0.398,0.409,0.247,0.266,0.242,0.561,0.333,0.318,0.264,0.512,0.321,0.366,0.309,1.17,1.07,1.17,1.1,1.41,0.798,0.734
Calu-6,–,–,–,–,–,0.682,0.494,0.33,0.193,0.457,0.302,0.277,0.207,0.876,0.86,0.898,0.788,0.819,0.807,0.6
LCLC-97TM1,0.304,0.308,0.312,0.293,0.124,0.199,0.166,0.116,0.213,0.194,0.172,0.103,0.684,0.316,–,0.448,0.544,0.527,0.183,0.16
HCC-15,0.448,0.49,0.252,0.327,0.333,0.772,0.562,0.51,0.434,0.646,0.469,0.413,0.348,0.742,–,0.693,0.678,0.767,0.777,0.654
CAL-12T,0.517,0.633,–,0.372,0.339,0.805,0.494,0.451,0.347,0.867,0.752,0.627,0.497,1.33,1.33,1.37,1.27,1.34,0.657,1.02
NCI-H727,0.549,0.503,0.367,0.423,0.362,0.232,0.302,0.282,0.234,0.361,0.343,0.272,0.292,0.404,0.409,0.38,0.532,0.583,0.303,0.302
ABC-1,0.238,0.231,0.25,0.252,0.212,0.677,0.639,0.611,0.523,–,–,–,–,–,–,–,–,–,0.705,–
NCI-H2023,0.31,0.346,0.222,0.163,0.161,0.524,0.406,0.237,0.195,0.517,0.379,0.259,0.198,0.997,1.02,1.01,0.997,0.988,0.588,0.609
NCI-H2342,0.597,0.732,0.511,0.514,0.535,–,–,–,–,–,–,–,–,–,–,–,–,–,–,–
SW 1573,0.32,0.327,0.323,0.287,0.168,0.793,0.697,0.408,0.392,0.89,0.687,0.356,0.217,0.925,1.06,0.872,1.01,1.05,0.666,1.15
NCI-H1993,0.558,0.494,0.507,0.504,0.478,0.745,0.763,0.718,0.659,0.993,0.906,0.732,0.87,1.05,0.935,0.981,0.733,1.09,0.767,0.917

Cell Line,relative viability (Decitabine + Phenformin; first compound 0.04 µM),relative viability (Decitabine + Phenformin; first compound 0.1265 µM),relative viability (Decitabine + Phenformin; first compound 0.4 µM),relative viability (Decitabine + Phenformin; first compound 1.265 µM),relative viability (Decitabine + Phenformin; first compound 4 µM),relative viability (Decitabine + Linsitinib; first compound 0.1265 µM),relative viability (Decitabine + Linsitinib; first compound 0.4 µM),relative viability (Decitabine + Linsitinib; first compound 1.265 µM),relative viability (Decitabine + Linsitinib; first compound 4 µM),relative viability (Decitabine + Navitoclax; first compound 0.1265 µM),relative viability (Decitabine + Navitoclax; first compound 0.4 µM),relative viability (Decitabine + Navitoclax; first compound 1.265 µM),relative viability (Decitabine + Navitoclax; first compound 4 µM),relative viability (Cediranib + Navitoclax; first compound 0.04 µM),relative viability (Cediranib + Navitoclax; first compound 0.1265 µM),relative viability (Cediranib + Navitoclax; first compound 0.4 µM),relative viability (Cediranib + Navitoclax; first compound 1.265 µM),relative viability (Cediranib + Navitoclax; first compound 4 µM),relative viability (Decitabine + Linsitinib; first compound 0.04 µM),relative viability (Decitabine + Navitoclax; first compound 0.04 µM)
NCI-H661,0.289,0.282,0.267,0.281,0.277,0.502,0.406,0.248,0.267,–,–,–,–,–,–,–,–,–,0.566,–
NCI-H520,0.42,0.347,0.37,0.328,0.288,0.916,0.633,0.333,0.324,0.804,0.615,0.819,0.467,1.15,–,0.926,1.09,1.2,1.13,0.941
ChaGo-K-1,0.435,0.413,0.301,0.271,0.336,–,–,–,–,0.762,0.479,0.611,0.565,1.02,–,0.952,1.23,0.83,–,0.681
NCI-H2085,0.516,0.51,0.381,0.361,0.394,0.615,0.508,0.392,0.372,0.736,0.67,0.497,0.467,1.19,1.04,1.13,1.09,1.26,0.744,0.882
NCI-H1651,0.331,0.345,0.383,0.287,0.318,0.888,0.888,0.839,0.733,1.03,0.958,0.684,0.876,1.04,1.01,0.899,1.02,1.18,0.865,0.893
RERF-LC-KJ,0.459,0.386,–,0.402,0.333,0.763,0.239,0.677,0.637,0.844,0.279,0.597,0.618,0.974,1.29,0.756,0.926,0.734,0.836,0.779
NCI-H1755,0.625,0.629,0.43,0.442,0.465,0.948,0.915,0.688,0.429,0.887,0.696,0.521,0.302,1.05,1,0.974,0.998,1.07,0.936,0.912
NCI-H650,0.432,0.408,0.321,0.346,0.291,0.538,0.298,0.258,0.32,–,–,–,–,–,–,–,–,–,0.722,–
NCI-H1703,–,–,–,–,–,0.553,0.226,0.242,0.201,0.642,0.255,0.189,0.253,1.11,0.916,0.287,0.237,0.238,0.546,0.845
NCI-H1650,0.309,0.386,0.303,0.246,0.361,–,–,–,–,0.482,0.434,0.329,0.295,1.19,1.29,1.08,1.12,0.751,–,0.546
NCI-H522,0.564,0.674,0.514,0.552,0.65,–,–,–,–,–,–,–,–,–,–,–,–,–,–,–
LCLC-103H,0.319,0.36,0.293,0.328,0.315,1.13,1.12,0.882,0.888,–,–,–,–,–,–,–,–,–,1.06,–
NCI-H1563,0.631,0.75,0.764,0.658,0.74,1.21,1.41,1.23,1.17,–,–,–,–,–,–,–,–,–,1.33,–
NCI-H358,0.246,0.258,0.168,0.148,0.136,0.822,0.521,0.272,0.293,–,–,–,–,–,–,–,–,–,0.87,–
SW 900,0.319,0.32,0.269,0.19,0.219,–,–,–,–,–,–,–,–,–,–,–,–,–,–,–
NCI-H1623,0.539,0.507,0.5,0.492,0.462,–,–,–,–,–,–,–,–,–,–,–,–,–,–,–
IA-LM,–,–,–,–,–,0.461,0.174,0.155,0.129,0.313,0.156,0.162,0.169,0.875,0.921,0.652,0.672,1.09,0.281,0.415
NCI-H2170,0.345,0.365,0.291,0.269,0.282,–,–,–,–,0.338,0.382,0.238,0.204,0.691,0.671,0.567,0.61,0.713,–,0.402
EBC-1,–,–,–,–,–,0.704,0.417,0.316,0.247,0.257,0.2,0.178,0.15,0.388,0.441,0.37,0.52,0.455,0.693,0.21
NCI-H1299,–,–,–,–,–,1.06,1.03,0.918,0.802,1.03,1.02,0.898,0.848,1.07,1.02,1.03,1.07,1.08,0.976,1.04
